Assay results as given in patent US7582681B2, “Synergistic mixtures of 1,2-alkane diols” (Symrise GmbH & Co. KG, priority 2002, dated 2009).

Tests used:
Test in all cases: Test for adequate preservation (European Pharmacopea), 1,2-diols and 1,2-diol mixtures in O/W emulsion
Type in all cases: cell-based
[1] = system: Candida albicans ATCC 10231; details: 3% diol(s) in O/W emulsion
Protocol: (§1) A test for adequate preservation was carried out in accordance with the European Pharmacopea. The test thus consists of the contamination of the formulation, if possible in its final ratio, with a prescribed inoculum of suitable microorganisms, storage of the inoculated formulation at a specific temperature, taking of samples from the vessel at specific intervals and determination of the number of microorganisms in the samples taken in this way. The preserving properties are adequate if, under the conditions of the test, there is a distinct reduction or optionally no increase in the germ count in the inoculated formulations after the prescribed times at the prescribed temperatures. Experimental details of the test procedure are described in the European Pharmacopea (ISBN 3-7692-2768-9; 2001 supplement to the 3rd Edition, page 421-422, chapter 5.1.3). The initial germ count (CFU/g; “0” value) was in the range of 240,000 to 300,000 in the various test series. For the tests for adequate preservation, (a) potentially synergistically active mixtures taken into account and (b), for comparison purposes, the corresponding unmixed 1,2-diols were incorporated in O/W emulsions. […] The variation in the total concentration of 1,2-diols or 1,2-diol mixtures in the O/W emulsions was compensated for by increasing or reducing the water content, so that otherwise identical formulations always comprised 100 parts by weight in total.

[2] = system: Escherichia coli ATCC 8739; details: 3% diol(s) in O/W emulsion
Protocol: as §1

[3] = system: Staphylococcus aureus ATCC 6538; details: 3% diol(s) in O/W emulsion
Protocol: as §1

[4] = system: Pseudomonas aeruginosa ATCC 9027; details: 3% diol(s) in O/W emulsion
Protocol: as §1

[5] = system: Aspergillus niger ATCC 16404; details: for germ count A. niger: 3% diol(s) in O/W emulsion; for reduction in the number of colony forming units (CFU) to the 0 value: Aspergillus niger, dosage of 3%, 28 days
Protocol: A test for adequate preservation was carried out in accordance with the European Pharmacopea. The test thus consists of the contamination of the formulation, if possible in its final ratio, with a prescribed inoculum of suitable microorganisms, storage of the inoculated formulation at a specific temperature, taking of samples from the vessel at specific intervals and determination of the number of microorganisms in the samples taken in this way. The preserving properties are adequate if, under the conditions of the test, there is a distinct reduction or optionally no increase in the germ count in the inoculated formulations after the prescribed times at the prescribed temperatures. Experimental details of the test procedure are described in the European Pharmacopea (ISBN 3-7692-2768-9; 2001 supplement to the 3rd Edition, page 421-422, chapter 5.1.3). The initial germ count (CFU/g; “0” value) was in the range of 240,000 to 300,000 in the various test series. For the tests for adequate preservation, (a) potentially synergistically active mixtures taken into account and (b), for comparison purposes, the corresponding unmixed 1,2-diols were incorporated in O/W emulsions. […] The variation in the total concentration of 1,2-diols or 1,2-diol mixtures in the O/W emulsions was compensated for by increasing or reducing the water content, so that otherwise identical formulations always comprised 100 parts by weight in total. […] The Kull equation enables the pure substances and the active compound mixtures prepared therefrom to be compared in respect of their antimicrobial activity. With this equation the so-called synergy index (SI), which is a measure for a synergistic activity, but also for a possible antagonistic activity, of a mixture having an antimicrobial action, is determined. A synergistic effect is evident if the SI value determined is less than 1. On the other hand, if an SI of precisely 1 is calculated, there is a pure additive effect of two substances having an antimicrobial action. In the case of an SI value greater than 1, on the other hand, there is a (frequently undesired) antagonistic effect.

Structure (SMILES)	germ count C. albicans ([1]; 0′-count (initial germ count))	germ count C. albicans ([1]; 24 h)	germ count C. albicans ([1]; 48 h)	germ count C. albicans ([1]; 4 d)	germ count C. albicans ([1]; 7 d)	germ count C. albicans ([1]; 14 d) [CFU/ml]	germ count C. albicans ([1]; 28 d) [CFU/ml]	germ count E. coli ([2]; 0′-count (initial germ count))	germ count E. coli ([2]; 24 h)	germ count E. coli ([2]; 48 h)	germ count E. coli ([2]; 4 d)	germ count E. coli ([2]; 7 d)	germ count E. coli ([2]; 14 d) [CFU/ml]	germ count E. coli ([2]; 28 d) [CFU/ml]	germ count Staph. aureus ([3]; 0′-count (initial germ count))	germ count Staph. aureus ([3]; 24 h)	germ count Staph. aureus ([3]; 48 h)	germ count Staph. aureus ([3]; 7 d) [CFU/ml]	germ count Staph. aureus ([3]; 14 d) [CFU/ml]	germ count Staph. aureus ([3]; 28 d) [CFU/ml]	other results
CCCC(O)CO (centres unmarked) [PE3, 1,2-pentanediol]	250,000 CFU/ml	245,000 CFU/ml	73,000 CFU/ml	28,000 CFU/ml	23,000 CFU/ml	<100	0	300,000 CFU/ml	300,000 CFU/ml	145,000 CFU/ml	100,000 CFU/ml	40,000 CFU/ml	500	0	240,000 CFU/ml	100,000 CFU/ml	12,000 CFU/ml	0	0	0	germ count Ps. aeruginosa ([4]; 0′-count (initial germ count)): 290,000 CFU/ml; germ count Ps. aeruginosa ([4]; 24 h): 145,000 CFU/ml; germ count Ps. aeruginosa ([4]; 48 h): 12,000 CFU/ml; germ count Ps. aeruginosa ([4]; 4 d): 0 CFU/ml; germ count Ps. aeruginosa ([4]; 7 d): 0 CFU/ml; germ count Ps. aeruginosa ([4]; 14 d): 0 CFU/ml; germ count Ps. aeruginosa ([4]; 28 d): 0 CFU/ml; germ count A. niger ([5]; 0′-count (initial germ count)): 260,000 CFU/ml; germ count A. niger ([5]; 24 h): 180,000 CFU/ml; germ count A. niger ([5]; 48 h): 180,000 CFU/ml; germ count A. niger ([5]; 4 d): 180,000 CFU/ml; germ count A. niger ([5]; 7 d): 140,000 CFU/ml; germ count A. niger ([5]; 14 d): 140,000 CFU/ml; germ count A. niger ([5]; 28 d): 100,000 CFU/ml; reduction in the number of colony forming units (CFU) to the 0 value [5]: did not enable a reduction in the number of colony forming units (CFU) to the desired 0 value
CCCCCCCCC(O)CO (centres unmarked) [DE 3, 1,2-decanediol]	320,000 CFU/ml	3,500 CFU/ml	0 CFU/ml	0 CFU/ml	0 CFU/ml	0	0	350,00 CFU/ml	0 CFU/ml	0 CFU/ml	0 CFU/ml	0 CFU/ml	0	0	350,000 CFU/ml	3,200 CFU/ml	0 CFU/ml	0	0	0	germ count Ps. aeruginosa ([4]; 0′-count (initial germ count)): 360,000 CFU/ml; germ count Ps. aeruginosa ([4]; 24 h): 2,600 CFU/ml; germ count Ps. aeruginosa ([4]; 7 d): 20.0 mill; germ count Ps. aeruginosa ([4]; 14 d): 15.0 mill; germ count Ps. aeruginosa ([4]; 28 d): 11.8 mill; germ count A. niger ([5]; 0′-count (initial germ count)): 250,000 CFU/ml; germ count A. niger ([5]; 24 h): 73,000 CFU/ml; germ count A. niger ([5]; 48 h): 160,000 CFU/ml; germ count A. niger ([5]; 4 d): 100,000 CFU/ml; germ count A. niger ([5]; 7 d): 100,000 CFU/ml; germ count A. niger ([5]; 14 d): 73,000 CFU/ml; germ count A. niger ([5]; 28 d): 73,000 CFU/ml; reduction in the number of colony forming units (CFU) to the 0 value [5]: did not enable a reduction in the number of colony forming units (CFU) to the desired 0 value
